From ChEMBL document CHEMBL4368868, “Selected aryl thiosemicarbazones as a new class of multi-targeted monoamine oxidase inhibitors” (Medchemcomm, 2018)

Assays:
[1] = molecular target: Acetylcholinesterase (Electrophorus electricus, UniProt O42275)
[2] = organism: Homo sapiens; assay: Selectivity index, ratio of IC50 for MAOA (unknown origin) to IC50 for MAOB (unknown origin)
[3] = molecular target: T1, Amine oxidase [flavin-containing] A (Homo sapiens, UniProt P21397)
T1 sequence (P21397 whole entry): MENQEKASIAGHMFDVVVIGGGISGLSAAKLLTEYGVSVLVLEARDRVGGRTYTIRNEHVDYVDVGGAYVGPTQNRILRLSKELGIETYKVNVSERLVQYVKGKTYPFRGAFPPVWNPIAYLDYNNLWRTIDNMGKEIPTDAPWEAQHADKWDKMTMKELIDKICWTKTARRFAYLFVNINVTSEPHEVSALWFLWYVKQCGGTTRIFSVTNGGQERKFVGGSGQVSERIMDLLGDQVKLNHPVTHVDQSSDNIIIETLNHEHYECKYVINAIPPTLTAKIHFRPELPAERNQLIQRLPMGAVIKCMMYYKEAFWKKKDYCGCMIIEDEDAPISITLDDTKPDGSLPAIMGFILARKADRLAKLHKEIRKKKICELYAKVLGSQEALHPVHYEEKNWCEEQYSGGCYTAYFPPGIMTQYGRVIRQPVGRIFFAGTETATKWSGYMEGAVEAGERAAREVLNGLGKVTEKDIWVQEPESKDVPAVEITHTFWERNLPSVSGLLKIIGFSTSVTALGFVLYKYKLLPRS

[4] = molecular target: T2, Amine oxidase [flavin-containing] B (Homo sapiens, UniProt P27338)
T2 sequence (P27338 whole entry): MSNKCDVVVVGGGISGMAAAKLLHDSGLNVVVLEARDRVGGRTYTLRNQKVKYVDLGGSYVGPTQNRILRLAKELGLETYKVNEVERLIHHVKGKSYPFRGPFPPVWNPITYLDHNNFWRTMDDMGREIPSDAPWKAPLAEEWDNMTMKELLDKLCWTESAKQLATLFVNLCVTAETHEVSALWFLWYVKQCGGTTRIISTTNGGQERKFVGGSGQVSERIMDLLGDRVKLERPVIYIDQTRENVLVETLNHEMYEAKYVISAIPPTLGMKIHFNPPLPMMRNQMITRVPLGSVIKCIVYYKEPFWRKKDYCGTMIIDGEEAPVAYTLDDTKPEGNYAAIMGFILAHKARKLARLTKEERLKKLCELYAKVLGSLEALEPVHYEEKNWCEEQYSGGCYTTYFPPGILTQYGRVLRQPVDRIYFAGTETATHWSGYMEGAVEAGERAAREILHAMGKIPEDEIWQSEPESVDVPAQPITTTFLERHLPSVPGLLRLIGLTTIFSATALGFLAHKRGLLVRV

[5] = molecular target: T2, Amine oxidase [flavin-containing] B; assay: Inhibition of MAOB (unknown origin) assessed as residual activity at 10 uM using benzylamine as substrate preincubated for 30 mins followed by substrate addition relative to control; details: read-out: Activity
[6] = Permeability of the compound in PBS/EtOH at 100 ug/ml incubated for 16 hrs by PAMPA; type: ADME; details: read-out: permeability
[7] = molecular target: T1, Amine oxidase [flavin-containing] A; assay: Inhibition of MAOA (unknown origin) assessed as residual activity at 10 uM using kynuramine as substrate preincubated for 30 mins followed by substrate addition relative to control; details: read-out: Activity
[8] = molecular target: T2, Amine oxidase [flavin-containing] B; assay: Reversible inhibition of MAOB (unknown origin) assessed as residual enzyme activity at 0.54 uM using benzylamine as substrate pre-incubated for 30 mins followed by dialysis with pH 7.2 sodium phosphate buffer relative to control; details: read-out: Activity
[9] = molecular target: T2, Amine oxidase [flavin-containing] B; assay: Competitive inhibition of MAOB (unknown origin) using varying levels of benzylamine as substrate preincubated for 15 mins followed by substrate addition and measured by Lineweaver-burk plot analysis
[10] = molecular target: T2, Amine oxidase [flavin-containing] B; assay: Reversible inhibition of MAOB (unknown origin) assessed as residual enzyme activity at 0.54 uM using benzylamine as substrate measured after 30 mins relative to control; details: 0.5 h, read-out: Activity
[11] = molecular target: T1, Amine oxidase [flavin-containing] A; assay: Reversible inhibition of MAOA (unknown origin) assessed as residual enzyme activity at 3.6 uM using kynuramine as substrate measured after 30 mins relative to control; details: 0.5 h, read-out: Activity
[12] = molecular target: T1, Amine oxidase [flavin-containing] A; assay: Reversible inhibition of MAOA (unknown origin) assessed as residual enzyme activity at 3.6 uM using kynuramine as substrate pre-incubated for 30 mins followed by dialysis with pH 7.2 sodium phosphate buffer relative to control; details: read-out: Activity
[13] = molecular target: T1, Amine oxidase [flavin-containing] A; assay: Competitive inhibition of MAOA (unknown origin) using varying levels of kynuramine as substrate preincubated for 15 mins followed by substrate addition and measured by Lineweaver-burk plot analysis
[14] = molecular target: T2, Amine oxidase [flavin-containing] B; assay: Reversible inhibition of MAOB (unknown origin) assessed as residual enzyme activity at 0.08 uM using benzylamine as substrate measured after 30 mins relative to control; details: 0.5 h, read-out: Activity
[15] = molecular target: T2, Amine oxidase [flavin-containing] B; assay: Reversible inhibition of MAOB (unknown origin) assessed as residual enzyme activity at 0.08 uM using benzylamine as substrate pre-incubated for 30 mins followed by dialysis with pH 7.2 sodium phosphate buffer relative to control; details: read-out: Activity
[16] = molecular target: T1, Amine oxidase [flavin-containing] A; assay: Irreversible inhibition of MAOA (unknown origin) assessed as residual enzyme activity at 0.014 uM using kynuramine as substrate pre-incubated for 30 mins followed by dialysis with pH 7.2 sodium phosphate buffer relative to control; details: read-out: Activity
[17] = molecular target: T1, Amine oxidase [flavin-containing] A; assay: Irreversible inhibition of MAOA (unknown origin) assessed as residual enzyme activity at 0.014 uM using kynuramine as substrate measured after 30 mins relative to control; details: 0.5 h, read-out: Activity
[18] = molecular target: T2, Amine oxidase [flavin-containing] B; details: 0.5 h
[19] = molecular target: T1, Amine oxidase [flavin-containing] A; assay: Reversible inhibition of MAOA (unknown origin) assessed as residual enzyme activity at 2 uM using kynuramine as substrate measured after 30 mins relative to control; details: 0.5 h, read-out: Activity
[20] = molecular target: T1, Amine oxidase [flavin-containing] A; assay: Reversible inhibition of MAOA (unknown origin) assessed as residual enzyme activity at 2 uM using kynuramine as substrate pre-incubated for 30 mins followed by dialysis with pH 7.2 sodium phosphate buffer relative to control; details: read-out: Activity

Sequence of Acetylcholinesterase (O42275 whole entry): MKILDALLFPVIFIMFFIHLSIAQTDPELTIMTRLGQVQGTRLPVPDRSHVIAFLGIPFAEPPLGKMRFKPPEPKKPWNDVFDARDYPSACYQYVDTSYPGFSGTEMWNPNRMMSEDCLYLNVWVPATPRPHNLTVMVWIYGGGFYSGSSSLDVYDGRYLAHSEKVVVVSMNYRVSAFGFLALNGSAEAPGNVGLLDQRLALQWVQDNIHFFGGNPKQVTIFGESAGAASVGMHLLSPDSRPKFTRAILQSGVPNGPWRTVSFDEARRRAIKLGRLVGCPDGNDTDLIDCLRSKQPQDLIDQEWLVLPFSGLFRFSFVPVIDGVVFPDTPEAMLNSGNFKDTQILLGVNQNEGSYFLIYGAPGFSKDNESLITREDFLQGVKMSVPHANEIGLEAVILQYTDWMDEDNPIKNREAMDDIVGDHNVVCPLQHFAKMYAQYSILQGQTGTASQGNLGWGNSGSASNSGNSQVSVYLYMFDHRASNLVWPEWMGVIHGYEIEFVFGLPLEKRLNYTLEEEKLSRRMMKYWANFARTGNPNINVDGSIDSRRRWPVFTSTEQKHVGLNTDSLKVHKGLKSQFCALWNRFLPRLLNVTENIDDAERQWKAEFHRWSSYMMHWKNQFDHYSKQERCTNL

**Q.** Which IC50 [1] does the source give for `N/C(S)=N/N=C/c1ccc([N+](=O)[O-])cc1` here?
**A.** 15.6 µM

**Q.** What about the Ratio IC50 [2] of the same compound?
**A.** > 6.99

**Q.** What about the IC50 [3] of the same compound?
**A.** > 10 µM

**Q.** What about the IC50 [4] of the same compound?
**A.** 1.43 µM

**Q.** What about the activity at 10 µM [5] of the same compound?
**A.** 7.5%

**Q.** And the Papp at 16 h, 100 ug/ml [6]?
**A.** 12.8 ×10⁻⁶ cm/s

**Q.** And the activity at 10 µM [7]?
**A.** 75.5%

**Q.** Which IC50 [1] does the source give for `NC(=S)N/N=C/c1cccc(F)c1` here?
**A.** 26.6 µM

**Q.** What about the activity at 0.54 µM [8] of the same compound?
**A.** 81%

**Q.** What about the Ratio IC50 [2] of the same compound?
**A.** > 37

**Q.** And the Ki [9]?
**A.** 0.12 µM

**Q.** What about the activity at 0.54 µM [10] of the same compound?
**A.** 27.4%

**Q.** And the IC50 [3]?
**A.** > 10 µM

**Q.** What about the IC50 [4] of the same compound?
**A.** 0.27 µM

**Q.** What about the activity at 10 µM [5] of the same compound?
**A.** 3%

**Q.** And the Papp at 16 h, 100 ug/ml [6]?
**A.** 13.1 ×10⁻⁶ cm/s

**Q.** What about the activity at 10 µM [7] of the same compound?
**A.** 75.5%

**Q.** With `NC(=S)N/N=C/c1ccc(F)cc1` as the compound, how does the IC50 [1] read?
**A.** 37.9 µM

**Q.** What about the IC50 [3] of the same compound?
**A.** > 10 µM

**Q.** What about the IC50 [4] of the same compound?
**A.** > 10 µM

**Q.** What about the activity at 10 µM [5] of the same compound?
**A.** 86.5%

**Q.** What about the activity at 10 µM [7] of the same compound?
**A.** 84.5%

**Q.** Which IC50 [1] does the source give for `NC(=S)N/N=C/c1ccc(Br)cc1` here?
**A.** 31.1 µM

**Q.** What about the IC50 [3] of the same compound?
**A.** > 10 µM

**Q.** And the IC50 [4]?
**A.** > 10 µM

**Q.** What about the activity at 10 µM [5] of the same compound?
**A.** 82.5%

**Q.** And the activity at 10 µM [7]?
**A.** 59.5%

**Q.** Which IC50 [1] does the source give for `NC(=S)N/N=C/c1ccc(Cl)cc1` here?
**A.** > 40 µM

**Q.** What about the IC50 [3] of the same compound?
**A.** > 10 µM

**Q.** What about the IC50 [4] of the same compound?
**A.** > 10 µM

**Q.** What about the activity at 10 µM [5] of the same compound?
**A.** 60.5%

**Q.** And the activity at 10 µM [7]?
**A.** 76%

**Q.** With `CN(C)c1ccc(/C=N/NC(N)=S)cc1` as the compound, how does the IC50 [1] read?
**A.** 35.3 µM

**Q.** And the activity at 3.6 µM [11]?
**A.** 34.7%

**Q.** And the activity at 3.6 µM [12]?
**A.** 70.3%

**Q.** What about the IC50 [3] of the same compound?
**A.** 1.82 µM

**Q.** And the IC50 [4]?
**A.** > 10 µM

**Q.** And the Ki [13]?
**A.** 0.97 µM

**Q.** And the activity at 10 µM [5]?
**A.** 82.3%

**Q.** What about the Papp at 16 h, 100 ug/ml [6] of the same compound?
**A.** 10.1 ×10⁻⁶ cm/s

**Q.** And the activity at 10 µM [7]?
**A.** 16.5%

**Q.** What does the source list for `NC(=S)N/N=C/c1ccccc1F`?
**A.** IC50 [1]: 30.8 µM; Ratio IC50 [2]: > 1.31; IC50 [3]: > 10 µM; IC50 [4]: 7.61 µM; activity at 10 µM [5]: 33.5%; Papp at 16 h, 100 ug/ml [6]: 10.3 ×10⁻⁶ cm/s; activity at 10 µM [7]: 77.5%

**Q.** With `NC(=S)N/N=C/c1ccc(O)cc1` as the compound, how does the IC50 [1] read?
**A.** > 40 µM

**Q.** What about the IC50 [3] of the same compound?
**A.** > 10 µM

**Q.** What about the IC50 [4] of the same compound?
**A.** > 10 µM

**Q.** And the activity at 10 µM [5]?
**A.** 87.5%

**Q.** What about the activity at 10 µM [7] of the same compound?
**A.** 66%

**Q.** What does the source list for `Cc1ccc(/C=N/NC(N)=S)cc1`?
**A.** IC50 [1]: > 40 µM; IC50 [3]: > 10 µM; IC50 [4]: > 10 µM; activity at 10 µM [5]: 91.5%; activity at 10 µM [7]: 56.5%

**Q.** Which results are given for `NCCNC(=O)c1ccc(Cl)cn1` [LAZABEMIDE]?
**A.** activity at 0.08 µM [14]: 29.5%; activity at 0.08 µM [15]: 86.9%; IC50 [3]: > 80 µM

**Q.** For `C#CCN(C)CCCOc1ccc(Cl)cc1Cl` [CLORGILINE], which activity at 0.014 µM [16] is on record?
**A.** 19.8%

**Q.** And the activity at 0.014 µM [17]?
**A.** 21.4%

**Q.** Which IC50 [1] does the source give for `COc1ccc(/C=N/NC(N)=S)cc1` here?
**A.** 36.1 µM

**Q.** And the Ratio IC50 [2]?
**A.** < 0.5

**Q.** What about the IC50 [3] of the same compound?
**A.** 4.99 µM

**Q.** And the IC50 [4]?
**A.** > 10 µM

**Q.** What about the activity at 10 µM [5] of the same compound?
**A.** 82.1%

**Q.** And the Papp at 16 h, 100 ug/ml [6]?
**A.** 11.2 ×10⁻⁶ cm/s

**Q.** What about the activity at 10 µM [7] of the same compound?
**A.** 37.5%

**Q.** For `C#CCN(C)Cc1ccccc1` [PARGYLINE], which activity at 0.2 µM [18] is on record?
**A.** 27.9%

**Q.** With `NC(=S)N/N=C/c1ccccc1` [PHENYLTHIOSEMICARBAZONE] as the compound, how does the IC50 [1] read?
**A.** > 40 µM

**Q.** What about the IC50 [3] of the same compound?
**A.** > 10 µM

**Q.** And the IC50 [4]?
**A.** > 10 µM

**Q.** And the activity at 10 µM [5]?
**A.** 75.5%

**Q.** And the activity at 10 µM [7]?
**A.** 83.5%

**Q.** Which results are given for `CCc1ccc(/C=N/NC(N)=S)cc1`?
**A.** IC50 [1]: 26.7 µM; Ratio IC50 [2]: < 0.6; IC50 [3]: 5.98 µM; IC50 [4]: > 10 µM; activity at 10 µM [5]: 86.2%; Papp at 16 h, 100 ug/ml [6]: 9.44 ×10⁻⁶ cm/s; activity at 10 µM [7]: 36%

**Q.** For `Cc1cccc(N2CC(CO)OC2=O)c1` (stereo not given) [TOLOXATONE], which activity at 2 µM [19] is on record?
**A.** 30.7%

**Q.** What about the activity at 2 µM [20] of the same compound?
**A.** 74%

**Q.** Which IC50 [1] does the source give for `N=C(S)N/N=C/c1ccc(C(F)(F)F)cc1` here?
**A.** 36.2 µM

**Q.** And the IC50 [3]?
**A.** > 10 µM

**Q.** And the IC50 [4]?
**A.** > 10 µM

**Q.** What about the activity at 10 µM [5] of the same compound?
**A.** 77.5%

**Q.** And the activity at 10 µM [7]?
**A.** 92.5%
